{"source": "patent US20190321420A1", "about": "“METHOD AND COMPOSITION FOR PREVENTING, TREATING OR RELIEVING BONE DISEASES” (GRAPE KING BIO Ltd., priority 2018, published 2019)", "key": {"[1]": {"tested_on": "ovariectomized ICR female mice", "assay": "Micro-CT bone tissue analysis of the right distal femur in ovariectomized mice (osteoporosis model)", "type": "in vivo", "settings": "32nd day after ovariectomy, GKM3/GKS6 205 mg/kg oral gavage once/day for 28 days, Alen 2.5 mg/kg 3 times a week for 28 days, n = 6"}, "[2]": {"tested_on": "ovariectomized ICR female mice", "assay": "Bone mineral density (BMD) of the femur in ovariectomized mice", "type": "in vivo", "settings": "right femur, 32nd day after ovariectomy; GKM3/GKS6 205 mg/kg oral gavage once/day for 28 days; Alen 2.5 mg/kg 3 times a week for 28 days; n = 6", "method": "In this embodiment, GKM3 and GKS6 powders were each prepared in a 0.5% (w/v) carboxymethylcellulose (CMC) solution as a suspension with a concentration of 205 mg/mL The vehicle group used 0.5% (w/v) CMC solution.\nBecause bone metabolism is closely related to estrogen, mice with bilateral ovariectomy were used as a model for studying osteoporosis in postmenopausal animals. After the recovery period of 1 to 2 weeks after the bilateral ovariectomy, mice were randomly assigned to different treatment groups.\nIn this embodiment, 8-week-old ICR female mice were purchased from BioLASCO Taiwan Co., Ltd., and ovariectomy (OVX) was performed when they were 9 weeks old. […]\nComputerized tomography images of the right distal femur of ICR mice were obtained by a micro-computed tomography (micro-CT) scanner (SkyScan 1076, Kontizh, Belgium) with a resolution of 18 μm and were analyzed by a software to obtain the trabecular bone volume density (i.e., bone volume/tissue volume, BV/TV), the trabecular thickness (Tb.Th), the trabecular number (Tb.N), and the trabecular spacing (Tb.Sp). The analyzed position was selected to include the area of 100 pieces under the growth plate but not the cortical bone. […]\nThe bone density (mass/volume) was detected by the micro-CT. […]\nThe obtained data in the experiments were analyzed with one-way analysis of variance (one-way ANOVA) and the Duncan's multiple range test. […]"}}, "note": "Marks after values point to notes of the source that are not given here.", "data": [{"compound": "NCCCC(O)(P(=O)(O)O)P(=O)(O)O", "note": "[Alen, alendronate]", "values": [{"measurement": "Femur Tb.N", "setting": "[1]", "result": "3.3 ± 0.1", "unit": "No./mm"}, {"measurement": "Femur Tb.Sp", "setting": "[1]", "result": "232.9 ± 25.9", "unit": "μm"}, {"measurement": "Femur Tb.Th", "setting": "[1]", "result": "109.9 ± 3.9", "unit": "μm"}, {"measurement": "Femur BMD", "setting": "[2]", "result": "0.60 ± 0.02* g/cm^3"}]}]}
